Test results reported in US20090263744A1, “ETHYLENICALLY UNSATURATED COMPOUND, LIGHT SENSITIVE COMPOSITION, LIGHT SENSITIVE PLANOGRAPHIC PRINTING PLATE MATERIAL AND PRINTING PROCESS EMPLOYING THE SAME” (priority 2005, published 2009).

Legend:
[1] = Solubility of polymerizable monomer in alkali solution (25° C. KOH aqueous solution having a pH of 12.5); format: physicochemical; conditions: Table 3, pH 12.5
Protocol: (§1) Herein, “dissolve” implies that no precipitations or oily separated components are visually observed under the following experimental conditions. Solubility in a 25° C. KOH aqueous solution having a pH of 12.5 or 25° C. pure water is represented by a value obtained by the following measuring method.
(§2) An ethylenically unsaturated compound is added to 20 ml of the solution or pure water described above at 25° C. in a 100 ml conical flask, stirred with a stirrer having a 1 cm long stirrer piece at a rate of 300 rpm for one hour, then allowed to stand for five minutes.
(§3) Solubility of polymerizable monomer to water or an alkali solution was measured according to the procedure described above.

[2] = Solubility of polymerizable monomer in 25° C. pure water (visual, no precipitations or oily separated components); format: physicochemical
Protocol: as §1, §2, §3

## C=CC(=O)OCC(CO)(COC(=O)C=C)COC(=O)C=C [PETA, Pentaerythritol triacrylate]
[1]
  Solubility of polymerizable monomer, Alkali solution: 0.1 % by weight
[2]; Table 2, water, 25° C.
  Solubility of polymerizable monomer weight % (water): 0.1 weight %
[2]; Table 3, 25° C. pure water
  Solubility of polymerizable monomer, Pure water: 0.1 % by weight
